{"source": "patent US20100041089A1", "about": "“IMPROVED METHOD FOR DETECTING CHEMICAL […]” (priority 2006, published 2010)", "test_system": "yeast genes (expressed mRNA)", "assay": "DNA chip measurement of expressed mRNA of yeast genes after culture with a toxic chemical substance", "format": "cell-based, Saccharomyces cerevisiae S288C", "conditions": "for The level of expressed mRNA in the presence of chemical substance/The level of expressed mRNA in the absence of chemical substance: cultured two hours with substance; for level of expressed mRNA in the presence of chemical substance / level in the absence of chemical substance: cultured two hours with the chemical substance", "method": "Yeast (Saccharomyces cerevisiae S288C (a SUC2mal mel gap2 CUP1)) were cultured at 25° C. on YPD medium (yeast extract 1%, polypeptone 2%, glucose 2%). One of toxic chemical substances was added to the cell at logarithmic growth phase, and the cell was further cultured for two hours. Cell was cultured without any chemical substance in the same condition, and was used as a control. Concentrations of the chemical substances were defined to inhibit the growth of the yeast but not lead to death.\nAfter the completion of cultivation, the culture was centrifuged to collect the cells. To the cells, sodium acetate buffer (50 mM sodium acetate, 10 mM EDTA, 1% SDS) was added, and the mixture was shaken at 65° C. for five minutes, followed by returning to room temperature, and obtaining the supernatant, which procedure was repeated two times. To the supernatant, ½ amount of a solution of phenol/chloroform (1:1) was added, and the mixture was centrifuged to give a supernatant, an equal amount of chloroform was added, and the mixture was centrifuged to give a supernatant. To the supernatant, an equal amount of isopropanol containing 0.3 M sodium acetate was added, and the mixture was allowed to stand at room temperature for 30 minutes, after which the mixture was centrifuged to give sediment of the whole RNAs. Seventy % ethanol was added to the sediment, and the mixture was again centrifuged to give sediment, which was then dried and dissolved in water. mRNA was isolated from the whole RNAs as followings. In view of the fact that a poly A chain is attached to the 3′ terminus of mRNA, a polynucleotide having a poly T structure which was immobilized on the surface of latex beads was used to trap the mRNA, and then the mRNA was washed and eluted with spine column (Oligotex-dT30<Super>mRNA Purification Kit, Takara). Reverse transcription of the mRNA was conducted with a reverse transcriptase (Super Script II Reverse Transcriptase; catalogue No. 18064-014, GibcoBRL) using fluorescence-labeled nucleotides to give cDNAs that were introduced with Cy3-dUTP or Cy5-dUTP during the reverse transcription.\nThe labeled cDNAs were dissolved in TE buffer (10 mM Tris-HCl/1 mM EDTA, pH 8.0), and the solution was dropped on the DNA chip containing the whole genes of yeast (DNA Chip Research Inc. Japan) so that the cDNAs were hybridized on the DNA chip at 65° C. for over 12 hours. The fluoresces intensity of the DNA chip was read with a scanner, and the ratio relative to the fluorescence intensity resulting from the absence of chemical substance was estimated as the following, which is shown in Tables 1 to 9.\nIn the Tables, “Intensity” indicated in the rightmost column is a value of the level of expressed mRNA of each gene in control cells as divided by the average level of the expressions of the whole genes. A gene of which mRNA level is lower in control, and is higher in cases of addition of chemical substance, is especially useful in the detection of toxic substances.\nHere, when a ratio of an amount of mRNA expressed in the presence of the chemical substance to an amount of mRNA expressed in the absence of the chemical substance is two or more, then it is considered significant.", "data": [{"substance": "Manganese ethylenebis(dithiocarbamate) [(8)]", "values": [{"measurement": "The level of expressed mRNA in the presence of chemical substance/The level of expressed mRNA in the absence of chemical substance", "setting": "yeast gene YNL044W", "value": 1.8}, {"measurement": "level of expressed mRNA in the presence of chemical substance / level in the absence of chemical substance", "setting": "yeast gene YNL063W", "value": 1.5}, {"measurement": "The level of expressed mRNA in the presence of chemical substance/The level of expressed mRNA in the absence of chemical substance", "setting": "yeast gene YNL074C", "value": 0.6}, {"measurement": "The level of expressed mRNA in the presence of chemical substance/The level of expressed mRNA in the absence of chemical substance", "setting": "yeast gene YNL092W", "value": 0.9}, {"measurement": "The level of expressed mRNA in the presence of chemical substance/The level of expressed mRNA in the absence of chemical substance", "setting": "yeast gene YNL115C", "value": 0.8}, {"measurement": "The level of expressed mRNA in the presence of chemical substance/The level of expressed mRNA in the absence of chemical substance", "setting": "yeast gene YNL156C", "value": 1.2}, {"measurement": "level of expressed mRNA in the presence of chemical substance / level in the absence of chemical substance", "setting": "yeast gene YNL176C", "value": 0.9}, {"measurement": "level of expressed mRNA in the presence of chemical substance / level in the absence of chemical substance", "setting": "yeast gene YNL194C", "value": 0.9}, {"measurement": "level of expressed mRNA in the presence of chemical substance / level in the absence of chemical substance", "setting": "yeast gene YNL200C", "value": 0.7}, {"measurement": "The level of expressed mRNA in the presence of chemical substance/The level of expressed mRNA in the absence of chemical substance", "setting": "yeast gene YNL234W", "value": 1.3}, {"measurement": "level of expressed mRNA in the presence of chemical substance / level in the absence of chemical substance", "setting": "yeast gene YNL253W", "value": 1.1}, {"measurement": "level of expressed mRNA in the presence of chemical substance / level in the absence of chemical substance", "setting": "yeast gene YNL276C", "value": 0.7}, {"measurement": "The level of expressed mRNA in the presence of chemical substance/The level of expressed mRNA in the absence of chemical substance", "setting": "yeast gene YNL281W", "value": 1.2}, {"measurement": "The level of expressed mRNA in the presence of chemical substance/The level of expressed mRNA in the absence of chemical substance", "setting": "yeast gene YNL305C", "value": 0.7}, {"measurement": "level of expressed mRNA in the presence of chemical substance / level in the absence of chemical substance", "setting": "yeast gene YNR051C", "value": 0.7}, {"measurement": "The level of expressed mRNA in the presence of chemical substance/The level of expressed mRNA in the absence of chemical substance", "setting": "yeast gene YNR068C", "value": 1.1}, {"measurement": "level of expressed mRNA in the presence of chemical substance / level in the absence of chemical substance", "setting": "yeast gene YOL026C", "value": 1.1}, {"measurement": "The level of expressed mRNA in the presence of chemical substance/The level of expressed mRNA in the absence of chemical substance", "setting": "yeast gene YOL032W", "value": 1.5}, {"measurement": "The level of expressed mRNA in the presence of chemical substance/The level of expressed mRNA in the absence of chemical substance", "setting": "yeast gene YOL036W", "value": 0.8}, {"measurement": "The level of expressed mRNA in the presence of chemical substance/The level of expressed mRNA in the absence of chemical substance", "setting": "yeast gene YOL047C", "value": 1.1}, {"measurement": "The level of expressed mRNA in the presence of chemical substance/The level of expressed mRNA in the absence of chemical substance", "setting": "yeast gene YOL071W", "value": 1.6}, {"measurement": "The level of expressed mRNA in the presence of chemical substance/The level of expressed mRNA in the absence of chemical substance", "setting": "yeast gene YOL082W", "value": 1.1}, {"measurement": "The level of expressed mRNA in the presence of chemical substance/The level of expressed mRNA in the absence of chemical substance", "setting": "yeast gene YOL083W", "value": 1.3}, {"measurement": "The level of expressed mRNA in the presence of chemical substance/The level of expressed mRNA in the absence of chemical substance", "setting": "yeast gene YOL117W", "value": 1.1}, {"measurement": "The level of expressed mRNA in the presence of chemical substance/The level of expressed mRNA in the absence of chemical substance", "setting": "yeast gene YOL131W", "value": 1.1}, {"measurement": "The level of expressed mRNA in the presence of chemical substance/The level of expressed mRNA in the absence of chemical substance", "setting": "yeast gene YOL150C", "value": 3.7}, {"measurement": "The level of expressed mRNA in the presence of chemical substance/The level of expressed mRNA in the absence of chemical substance", "setting": "yeast gene YOL162W", "value": 1.6}, {"measurement": "The level of expressed mRNA in the presence of chemical substance/The level of expressed mRNA in the absence of chemical substance", "setting": "yeast gene YOR019W", "value": 1.1}, {"measurement": "level of expressed mRNA in the presence of chemical substance / level in the absence of chemical substance", "setting": "yeast gene YOR022C", "value": 1.2}, {"measurement": "level of expressed mRNA in the presence of chemical substance / level in the absence of chemical substance", "setting": "yeast gene YOR087W", "value": 0.8}, {"measurement": "level of expressed mRNA in the presence of chemical substance / level in the absence of chemical substance", "setting": "yeast gene YOR138C", "value": 0.8}, {"measurement": "The level of expressed mRNA in the presence of chemical substance/The level of expressed mRNA in the absence of chemical substance", "setting": "yeast gene YOR197W", "value": 0.9}, {"measurement": "level of expressed mRNA in the presence of chemical substance / level in the absence of chemical substance", "setting": "yeast gene YOR253W", "value": 1.2}, {"measurement": "level of expressed mRNA in the presence of chemical substance / level in the absence of chemical substance", "setting": "yeast gene YOR267C", "value": 0.7}, {"measurement": "level of expressed mRNA in the presence of chemical substance / level in the absence of chemical substance", "setting": "yeast gene YOR325W", "value": 0.9}, {"measurement": "level of expressed mRNA in the presence of chemical substance / level in the absence of chemical substance", "setting": "yeast gene YPL005W", "value": 1.0}, {"measurement": "The level of expressed mRNA in the presence of chemical substance/The level of expressed mRNA in the absence of chemical substance", "setting": "yeast gene YPL087W", "value": 1.0}, {"measurement": "level of expressed mRNA in the presence of chemical substance / level in the absence of chemical substance", "setting": "yeast gene YPL150W", "value": 1.1}, {"measurement": "level of expressed mRNA in the presence of chemical substance / level in the absence of chemical substance", "setting": "yeast gene YPL152W", "value": 1.1}, {"measurement": "level of expressed mRNA in the presence of chemical substance / level in the absence of chemical substance", "setting": "yeast gene YPL168W", "value": 1.2}, {"measurement": "level of expressed mRNA in the presence of chemical substance / level in the absence of chemical substance", "setting": "yeast gene YPL180W", "value": 1.0}, {"measurement": "level of expressed mRNA in the presence of chemical substance / level in the absence of chemical substance", "setting": "yeast gene YPL188W", "value": 1.6}, {"measurement": "The level of expressed mRNA in the presence of chemical substance/The level of expressed mRNA in the absence of chemical substance", "setting": "yeast gene YPL196W", "value": 1.2}, {"measurement": "The level of expressed mRNA in the presence of chemical substance/The level of expressed mRNA in the absence of chemical substance", "setting": "yeast gene YPL206C", "value": 1.0}, {"measurement": "level of expressed mRNA in the presence of chemical substance / level in the absence of chemical substance", "setting": "yeast gene YPL221W", "value": 0.9}, {"measurement": "The level of expressed mRNA in the presence of chemical substance/The level of expressed mRNA in the absence of chemical substance", "setting": "yeast gene YPL222W", "value": 0.7}, {"measurement": "level of expressed mRNA in the presence of chemical substance / level in the absence of chemical substance", "setting": "yeast gene YPL225W", "value": 1.7}, {"measurement": "The level of expressed mRNA in the presence of chemical substance/The level of expressed mRNA in the absence of chemical substance", "setting": "yeast gene YPR023C", "value": 0.9}, {"measurement": "level of expressed mRNA in the presence of chemical substance / level in the absence of chemical substance", "setting": "yeast gene YPR049C", "value": 1.1}, {"measurement": "level of expressed mRNA in the presence of chemical substance / level in the absence of chemical substance", "setting": "yeast gene YPR146C", "value": 0.8}, {"measurement": "level of expressed mRNA in the presence of chemical substance / level in the absence of chemical substance", "setting": "yeast gene YPR148C", "value": 1.5}, {"measurement": "The level of expressed mRNA in the presence of chemical substance/The level of expressed mRNA in the absence of chemical substance", "setting": "yeast gene YPR151C", "value": 1.4}, {"measurement": "level of expressed mRNA in the presence of chemical substance / level in the absence of chemical substance", "setting": "yeast gene YPR172W", "value": 1.0}]}]}
